Measured values published in US10870647B2, “Imidazopyridine derivative, method for preparing same, and pharmaceutical composition containing same as active ingredient for preventing or treating cancer” (DAEGU-GYEONGBUK MEDICAL INNOVATION FOUNDATION, priority 2016, dated 2020).
Where two headings read alike, the source gives them in different places.

Tests used:
Assay in all cases: Kinase selectivity, scanMAX Kinase assay panel (DiscoverX), % control at 1 uM
Format in all cases: binding
[1] = target: T1, scanMAX Kinase assay panel (Homo sapiens, UniProt P00519, F317I); details: 1 uM, read-out: Percent Control (%)
T1 construct: purchased DiscoverX
Procedure, shortened: (§1)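 Activity was called for kinases showing % control under 35, calculated from compound signal relative to positive and negative controls. Each compound screened at 1 uM against the DiscoverX scanMAX panel.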

[2] = target: T2, scanMAX Kinase assay panel (Homo sapiens, UniProt P00533, T790M); details: EGFR (T790M); 1 uM; read-out: Percent Control (%)
T2 construct: purchased DiscoverX
Procedure, shortened: as §1

[3] = target: T3, scanMAX Kinase assay panel (Homo sapiens, UniProt P07332); details: FES; 1 uM; read-out: Percent Control (%)
T3 construct: purchased DiscoverX
Procedure, shortened: as §1

[4] = target: T4, scanMAX Kinase assay panel (Homo sapiens, UniProt P07948); details: LYN; 1 uM; read-out: Percent Control (%)
T4 construct: purchased DiscoverX
T4 sequence (P07948 whole entry): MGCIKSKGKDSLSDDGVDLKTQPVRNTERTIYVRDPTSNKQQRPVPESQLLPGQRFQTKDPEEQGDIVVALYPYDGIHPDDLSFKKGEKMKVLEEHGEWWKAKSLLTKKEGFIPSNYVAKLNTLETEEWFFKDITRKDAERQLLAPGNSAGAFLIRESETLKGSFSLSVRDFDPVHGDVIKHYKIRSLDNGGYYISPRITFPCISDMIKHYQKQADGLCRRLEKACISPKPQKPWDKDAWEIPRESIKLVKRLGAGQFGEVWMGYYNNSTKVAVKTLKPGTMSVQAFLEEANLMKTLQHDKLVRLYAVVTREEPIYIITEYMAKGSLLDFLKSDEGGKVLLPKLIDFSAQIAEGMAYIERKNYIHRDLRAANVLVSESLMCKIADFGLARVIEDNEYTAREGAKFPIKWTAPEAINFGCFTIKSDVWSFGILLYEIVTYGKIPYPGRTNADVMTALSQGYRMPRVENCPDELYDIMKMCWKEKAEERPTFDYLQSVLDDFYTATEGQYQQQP
Procedure, shortened: as §1

[5] = target: T5, scanMAX Kinase assay panel (Homo sapiens, UniProt P07949, M918T); details: RET (M918T); 1 uM; read-out: Percent Control (%)
T5 construct: purchased DiscoverX
Procedure, shortened: as §1

[6] = target: T6, scanMAX Kinase assay panel (Homo sapiens, UniProt P12931); details: SRC; 1 uM; read-out: Percent Control (%)
T6 construct: purchased DiscoverX
T6 sequence (P12931 whole entry): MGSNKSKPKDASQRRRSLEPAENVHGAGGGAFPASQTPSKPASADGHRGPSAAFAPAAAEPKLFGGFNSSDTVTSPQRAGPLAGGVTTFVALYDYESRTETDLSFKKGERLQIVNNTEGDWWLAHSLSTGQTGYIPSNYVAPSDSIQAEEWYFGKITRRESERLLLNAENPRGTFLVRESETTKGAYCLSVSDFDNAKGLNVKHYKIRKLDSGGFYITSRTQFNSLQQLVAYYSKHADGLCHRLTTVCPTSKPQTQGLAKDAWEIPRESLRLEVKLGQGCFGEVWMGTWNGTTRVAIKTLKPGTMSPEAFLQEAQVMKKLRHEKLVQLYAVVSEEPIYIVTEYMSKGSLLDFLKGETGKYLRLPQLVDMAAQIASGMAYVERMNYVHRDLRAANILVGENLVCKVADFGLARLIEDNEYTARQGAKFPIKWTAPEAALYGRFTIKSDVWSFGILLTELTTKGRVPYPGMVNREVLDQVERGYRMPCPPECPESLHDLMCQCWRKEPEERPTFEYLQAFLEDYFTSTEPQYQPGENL
Procedure, shortened: as §1

[7] = target: T7, scanMAX Kinase assay panel (Homo sapiens, UniProt P29317); details: EPHA2; 1 uM; read-out: Percent Control (%)
T7 construct: purchased DiscoverX
T7 sequence (P29317 24-976): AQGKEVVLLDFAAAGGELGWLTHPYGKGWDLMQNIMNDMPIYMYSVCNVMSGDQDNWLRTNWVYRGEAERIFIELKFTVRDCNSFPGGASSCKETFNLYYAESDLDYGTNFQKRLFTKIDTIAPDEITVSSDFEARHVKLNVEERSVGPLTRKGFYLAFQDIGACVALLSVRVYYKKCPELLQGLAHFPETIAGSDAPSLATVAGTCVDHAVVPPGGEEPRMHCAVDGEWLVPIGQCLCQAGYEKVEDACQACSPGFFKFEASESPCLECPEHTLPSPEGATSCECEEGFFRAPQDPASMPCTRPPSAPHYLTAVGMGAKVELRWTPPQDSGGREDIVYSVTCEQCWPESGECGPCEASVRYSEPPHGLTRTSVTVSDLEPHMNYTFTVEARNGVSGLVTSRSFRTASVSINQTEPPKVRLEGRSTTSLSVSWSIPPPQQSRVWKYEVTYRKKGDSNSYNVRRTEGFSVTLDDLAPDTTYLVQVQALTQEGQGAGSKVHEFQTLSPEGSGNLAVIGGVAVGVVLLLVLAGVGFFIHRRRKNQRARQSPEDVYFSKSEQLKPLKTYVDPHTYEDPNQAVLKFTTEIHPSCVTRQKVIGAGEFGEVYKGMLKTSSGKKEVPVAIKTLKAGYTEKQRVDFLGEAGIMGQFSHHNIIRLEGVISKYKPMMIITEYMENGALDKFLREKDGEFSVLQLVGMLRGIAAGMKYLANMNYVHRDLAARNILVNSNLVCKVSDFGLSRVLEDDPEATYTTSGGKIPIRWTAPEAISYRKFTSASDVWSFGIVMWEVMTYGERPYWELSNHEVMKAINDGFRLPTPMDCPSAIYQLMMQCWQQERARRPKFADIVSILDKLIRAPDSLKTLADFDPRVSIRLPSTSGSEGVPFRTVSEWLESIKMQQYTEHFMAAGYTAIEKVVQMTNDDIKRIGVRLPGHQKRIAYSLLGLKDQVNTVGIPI
Procedure, shortened: as §1

[8] = target: T8, scanMAX Kinase assay panel (Homo sapiens, UniProt P43403); details: ZAP70; 1 uM; read-out: Percent Control (%)
T8 construct: purchased DiscoverX
T8 sequence (P43403 1-619): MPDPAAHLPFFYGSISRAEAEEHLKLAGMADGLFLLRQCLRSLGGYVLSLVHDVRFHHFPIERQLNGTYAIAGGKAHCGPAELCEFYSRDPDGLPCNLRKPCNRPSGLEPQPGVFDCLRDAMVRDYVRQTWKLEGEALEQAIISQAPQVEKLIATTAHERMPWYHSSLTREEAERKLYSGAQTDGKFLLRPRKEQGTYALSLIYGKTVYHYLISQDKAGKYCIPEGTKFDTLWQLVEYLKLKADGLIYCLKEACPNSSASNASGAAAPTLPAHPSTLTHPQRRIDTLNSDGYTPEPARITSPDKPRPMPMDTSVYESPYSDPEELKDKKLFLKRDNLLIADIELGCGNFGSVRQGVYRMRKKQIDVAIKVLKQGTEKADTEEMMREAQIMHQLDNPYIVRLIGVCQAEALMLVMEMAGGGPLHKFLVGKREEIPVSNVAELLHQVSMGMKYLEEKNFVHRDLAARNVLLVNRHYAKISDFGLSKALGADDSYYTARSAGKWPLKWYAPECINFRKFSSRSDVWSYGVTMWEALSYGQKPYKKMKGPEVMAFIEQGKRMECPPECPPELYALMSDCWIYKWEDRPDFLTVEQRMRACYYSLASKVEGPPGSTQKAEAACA
Procedure, shortened: as §1

[9] = target: T9, scanMAX Kinase assay panel (Homo sapiens, UniProt P49336); details: CDK8; 1 uM; read-out: Percent Control (%)
T9 construct: purchased DiscoverX
T9 sequence (P49336 whole entry): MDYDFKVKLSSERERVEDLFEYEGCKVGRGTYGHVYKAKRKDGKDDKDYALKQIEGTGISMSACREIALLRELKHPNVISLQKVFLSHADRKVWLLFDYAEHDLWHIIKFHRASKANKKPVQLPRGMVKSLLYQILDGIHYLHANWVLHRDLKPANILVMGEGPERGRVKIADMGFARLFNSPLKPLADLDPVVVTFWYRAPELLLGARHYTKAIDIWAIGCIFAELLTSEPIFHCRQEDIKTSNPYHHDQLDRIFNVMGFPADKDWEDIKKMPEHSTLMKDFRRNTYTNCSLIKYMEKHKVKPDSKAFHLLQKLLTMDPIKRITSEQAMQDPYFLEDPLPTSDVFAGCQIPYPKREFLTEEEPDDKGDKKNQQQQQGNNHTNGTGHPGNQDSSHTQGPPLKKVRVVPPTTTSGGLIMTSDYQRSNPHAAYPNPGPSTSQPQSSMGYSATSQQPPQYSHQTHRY
Procedure, shortened: as §1

[10] = target: T10, scanMAX Kinase assay panel (Homo sapiens, UniProt P54760); details: EPHB4; 1 uM; read-out: Percent Control (%)
T10 construct: purchased DiscoverX
T10 sequence (P54760 16-987): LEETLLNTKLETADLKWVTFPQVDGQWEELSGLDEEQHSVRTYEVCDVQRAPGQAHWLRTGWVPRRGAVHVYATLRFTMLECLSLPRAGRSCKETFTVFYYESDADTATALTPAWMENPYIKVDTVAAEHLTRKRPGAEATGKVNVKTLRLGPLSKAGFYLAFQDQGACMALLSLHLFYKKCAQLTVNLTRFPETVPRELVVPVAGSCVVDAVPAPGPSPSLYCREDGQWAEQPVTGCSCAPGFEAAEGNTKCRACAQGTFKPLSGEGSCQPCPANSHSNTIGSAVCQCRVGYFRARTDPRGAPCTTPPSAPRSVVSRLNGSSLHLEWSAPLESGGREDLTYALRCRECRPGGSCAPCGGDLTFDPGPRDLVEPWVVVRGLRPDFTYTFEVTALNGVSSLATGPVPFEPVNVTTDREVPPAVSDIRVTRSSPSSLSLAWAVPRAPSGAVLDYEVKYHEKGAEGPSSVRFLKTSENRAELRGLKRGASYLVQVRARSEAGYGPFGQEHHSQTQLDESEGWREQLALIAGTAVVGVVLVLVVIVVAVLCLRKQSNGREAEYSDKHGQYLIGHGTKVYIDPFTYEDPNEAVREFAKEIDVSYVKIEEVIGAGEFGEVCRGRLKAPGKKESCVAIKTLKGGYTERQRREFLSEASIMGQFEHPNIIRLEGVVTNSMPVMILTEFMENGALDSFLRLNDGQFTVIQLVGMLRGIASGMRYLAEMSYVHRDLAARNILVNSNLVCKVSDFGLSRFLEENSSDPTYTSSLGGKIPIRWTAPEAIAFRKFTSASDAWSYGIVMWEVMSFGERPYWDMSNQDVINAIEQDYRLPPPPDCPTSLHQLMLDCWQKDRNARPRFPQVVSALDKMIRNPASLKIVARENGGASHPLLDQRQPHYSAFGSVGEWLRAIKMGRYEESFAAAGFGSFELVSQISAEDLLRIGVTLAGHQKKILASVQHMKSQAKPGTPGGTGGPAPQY
Procedure, shortened: as §1

[11] = target: T11, scanMAX Kinase assay panel (Homo sapiens, UniProt Q02750); details: MEK1; 1 uM; read-out: Percent Control (%)
T11 construct: purchased DiscoverX
T11 sequence (Q02750 whole entry): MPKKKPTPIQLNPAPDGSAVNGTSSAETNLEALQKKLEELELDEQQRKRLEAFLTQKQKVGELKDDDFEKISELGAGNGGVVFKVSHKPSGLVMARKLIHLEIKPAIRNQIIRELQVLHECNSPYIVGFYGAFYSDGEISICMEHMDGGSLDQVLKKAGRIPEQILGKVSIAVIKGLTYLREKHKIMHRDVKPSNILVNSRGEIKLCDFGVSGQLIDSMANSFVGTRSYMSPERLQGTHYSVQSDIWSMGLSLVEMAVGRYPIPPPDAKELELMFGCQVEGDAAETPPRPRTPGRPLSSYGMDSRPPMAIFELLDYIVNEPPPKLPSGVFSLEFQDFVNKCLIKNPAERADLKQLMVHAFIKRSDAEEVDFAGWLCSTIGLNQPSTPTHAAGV
Procedure, shortened: as §1

[12] = target: T12, scanMAX Kinase assay panel (Homo sapiens, UniProt Q96J92); details: WNK4; 1 uM; read-out: Percent Control (%)
T12 construct: purchased DiscoverX
T12 sequence (Q96J92 whole entry): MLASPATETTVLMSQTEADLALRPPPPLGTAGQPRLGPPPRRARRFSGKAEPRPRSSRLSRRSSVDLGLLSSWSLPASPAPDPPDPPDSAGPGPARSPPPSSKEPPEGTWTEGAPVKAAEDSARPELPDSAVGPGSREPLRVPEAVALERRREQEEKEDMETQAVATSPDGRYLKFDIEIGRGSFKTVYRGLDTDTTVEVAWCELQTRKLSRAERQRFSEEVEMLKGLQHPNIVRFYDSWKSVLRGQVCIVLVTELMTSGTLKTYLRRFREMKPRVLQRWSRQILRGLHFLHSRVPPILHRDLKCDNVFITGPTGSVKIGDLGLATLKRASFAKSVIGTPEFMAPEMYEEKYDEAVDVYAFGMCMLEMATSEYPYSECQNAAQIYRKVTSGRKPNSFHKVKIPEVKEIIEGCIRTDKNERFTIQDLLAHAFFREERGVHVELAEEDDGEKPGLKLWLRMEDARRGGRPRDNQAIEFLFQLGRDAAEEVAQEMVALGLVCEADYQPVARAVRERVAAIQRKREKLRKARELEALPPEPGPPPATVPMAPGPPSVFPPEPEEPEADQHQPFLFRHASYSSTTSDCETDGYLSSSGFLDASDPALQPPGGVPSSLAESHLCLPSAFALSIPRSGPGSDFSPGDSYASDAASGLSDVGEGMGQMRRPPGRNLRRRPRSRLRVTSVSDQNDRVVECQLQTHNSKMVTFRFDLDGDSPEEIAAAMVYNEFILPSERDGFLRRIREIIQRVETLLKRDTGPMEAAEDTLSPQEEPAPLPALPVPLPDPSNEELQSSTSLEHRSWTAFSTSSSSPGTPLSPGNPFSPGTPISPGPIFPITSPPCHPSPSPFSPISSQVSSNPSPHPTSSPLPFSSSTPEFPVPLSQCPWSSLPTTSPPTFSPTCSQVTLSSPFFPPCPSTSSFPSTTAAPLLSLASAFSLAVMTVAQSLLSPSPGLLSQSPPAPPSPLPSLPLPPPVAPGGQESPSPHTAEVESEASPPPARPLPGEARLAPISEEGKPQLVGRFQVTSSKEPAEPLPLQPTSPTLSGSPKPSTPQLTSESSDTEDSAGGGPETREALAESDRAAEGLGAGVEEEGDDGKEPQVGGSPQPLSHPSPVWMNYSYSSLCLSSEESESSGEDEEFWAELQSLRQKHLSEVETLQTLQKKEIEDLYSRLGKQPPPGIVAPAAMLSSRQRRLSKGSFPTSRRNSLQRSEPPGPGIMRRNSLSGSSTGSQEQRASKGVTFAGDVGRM
Procedure, shortened: as §1

[13] = target: T13, scanMAX Kinase assay panel (Homo sapiens, UniProt Q9UBF8); details: PIK4CB; 1 uM; read-out: Percent Control (%)
T13 construct: purchased DiscoverX
T13 sequence (Q9UBF8 whole entry): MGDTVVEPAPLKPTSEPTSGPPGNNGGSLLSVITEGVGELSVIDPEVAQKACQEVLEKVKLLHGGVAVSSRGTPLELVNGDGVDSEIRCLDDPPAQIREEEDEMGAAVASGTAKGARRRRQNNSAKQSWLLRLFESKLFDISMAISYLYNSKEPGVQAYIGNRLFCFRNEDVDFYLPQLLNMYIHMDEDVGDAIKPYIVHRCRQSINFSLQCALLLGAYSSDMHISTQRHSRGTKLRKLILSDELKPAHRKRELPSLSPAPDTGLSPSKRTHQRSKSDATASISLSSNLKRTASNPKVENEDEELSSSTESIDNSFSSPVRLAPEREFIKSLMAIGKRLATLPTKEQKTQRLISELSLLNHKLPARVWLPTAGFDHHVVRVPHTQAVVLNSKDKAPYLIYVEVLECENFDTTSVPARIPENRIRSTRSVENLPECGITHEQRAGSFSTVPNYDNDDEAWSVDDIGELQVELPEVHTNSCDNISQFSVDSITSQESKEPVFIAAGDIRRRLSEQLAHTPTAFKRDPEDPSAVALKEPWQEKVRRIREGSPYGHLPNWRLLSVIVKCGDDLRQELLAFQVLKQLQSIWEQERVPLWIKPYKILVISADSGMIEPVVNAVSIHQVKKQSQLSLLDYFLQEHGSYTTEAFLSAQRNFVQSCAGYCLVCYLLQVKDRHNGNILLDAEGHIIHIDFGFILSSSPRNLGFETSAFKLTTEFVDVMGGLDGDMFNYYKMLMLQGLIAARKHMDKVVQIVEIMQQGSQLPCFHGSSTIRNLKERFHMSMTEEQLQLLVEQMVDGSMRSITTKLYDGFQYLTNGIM
Procedure, shortened: as §1

Molecule `Cc1ccc(C(=O)Nc2ccc(CN3CCN(C)CC3)c(C(F)(F)F)c2)cc1C#Cc1cnc2c(Nc3cnn(C)c3)cccn12` [Example 1, 4-methyl-3-((8-((1-methyl-1H-pyrazol-4-yl)amino)imidazo[1,2-a]pyridin-3-yl)ethynyl)-N-(4-((4-methylpiperazin-1-yl)methyl)-3-(trifluoromethyl)phenyl)benzamide] has a remaining binding at 1 µM ([1]; ABL1 (F317I)-nonphosphorylated) of 1%, a remaining binding at 1 µM ([1]; ABL1 (F317I)-phosphorylated) of 3% and a remaining binding at 1 µM [2] of 10%. The remaining binding at 1 µM [3] was 0%, the remaining binding at 1 µM [4] was 0% and the remaining binding at 1 µM [5] was 0%. The remaining binding at 1 µM [6] was 0%, the remaining binding at 1 µM [7] was 2% and the remaining binding at 1 µM [8] was 26%. It also gave a remaining binding at 1 µM [9] of 4%, a remaining binding at 1 µM [10] of 3% and a remaining binding at 1 µM [11] of 100%. The remaining binding at 1 µM [12] was 96% and the remaining binding at 1 µM [13] was 88%.
`Cc1cn(-c2cc(NC(=O)c3ccc(C)c(C#Cc4cnc5c(Nc6cnn(C)c6)cccn45)c3)cc(C(F)(F)F)c2)cn1` [Example 12, 4-methyl-N-(3-(4-methyl-1H-imidazol-1-yl)-5-(trifluoromethyl)phenyl)-3-((8-((1-methyl-1H-pyrazol-4-yl)amino)imidazo[1,2-a]pyridin-3-yl)ethynyl)benzamide] gave a remaining binding at 1 µM ([1]; ABL1 (F317I)-nonphosphorylated) of 10%, a remaining binding at 1 µM ([1]; ABL1 (F317I)-phosphorylated) of 28% and a remaining binding at 1 µM [2] of 75%. It also gave a remaining binding at 1 µM [3] of 6%, a remaining binding at 1 µM [4] of 3% and a remaining binding at 1 µM [5] of 0%. For the same molecule, the remaining binding at 1 µM [6] was 1%, the remaining binding at 1 µM [7] was 9% and the remaining binding at 1 µM [8] was 100%. The remaining binding at 1 µM [9] was 31%, the remaining binding at 1 µM [10] was 41% and the remaining binding at 1 µM [11] was 100%. It also gave a remaining binding at 1 µM [12] of 100% and a remaining binding at 1 µM [13] of 100%.
`Cc1ccc(NC(=O)C2(C(=O)Nc3ccc(F)cc3)CC2)cc1C#Cc1cnc2c(Nc3cnn(C(C)C)c3)cccn12` [Example 78] gave a remaining binding at 1 µM ([1]; ABL1 (F317I)-nonphosphorylated) of 36%, a remaining binding at 1 µM ([1]; ABL1 (F317I)-phosphorylated) of 72% and a remaining binding at 1 µM [2] of 100%. It also gave a remaining binding at 1 µM [3] of 100%, a remaining binding at 1 µM [4] of 84% and a remaining binding at 1 µM [5] of 100%. The remaining binding at 1 µM [6] was 73%, the remaining binding at 1 µM [7] was 91% and the remaining binding at 1 µM [8] was 96%. It also gave a remaining binding at 1 µM [9] of 100%, a remaining binding at 1 µM [10] of 100% and a remaining binding at 1 µM [11] of 100%. It also gave a remaining binding at 1 µM [12] of 100% and a remaining binding at 1 µM [13] of 99%.
